Measurements reported in PubChem BioAssay AID248 (DTP/NCI, 2004).
“And” between values parts separate entries of the source, which are not always exact repeats. Equal entries are not always repeated. Inconclusive results and toxic doses are left out.

Tested on: L1210 leukemia ip in BDF1 mice, survival T/C
Assay: NCI In Vivo Anticancer Drug Screen. Data for tumor model L1210 Leukemia (intraperitoneal) in B6D2F1 (BDF1) mice
Conditions: endpoint: mean survival time, higher = longer survival
Outline: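 Ratio derived from survival: compound-dosed mice over vehicle-dosed mice, all bearing a transplantable tumor.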

[1] = dose: 100.0 mg/kg/injection, schedule: Q04DX003 (ip), vehicle: saline with Tween-80
[2] = dose: 200.0 mg/kg/injection, schedule: Q04DX003 (ip), vehicle: saline with Tween-80
[3] = dose: 25.0 mg/kg/injection, schedule: Q01DX001 (ip), vehicle: Klucel (hydroxypropylcellulose) (HPC)
[4] = dose: 50.0 mg/kg/injection, schedule: Q01DX001 (ip), vehicle: Klucel (hydroxypropylcellulose) (HPC)
[5] = dose: 100.0 mg/kg/injection, schedule: Q01DX001 (ip), vehicle: Klucel (hydroxypropylcellulose) (HPC)
[6] = dose: 100.0 mg/kg/injection, schedule: Q01DX009 (ip), vehicle: Klucel (hydroxypropylcellulose) (HPC)
[7] = dose: 100.0 mg/kg/injection, schedule: Q04DX003 (ip), vehicle: Klucel (hydroxypropylcellulose) (HPC)
[8] = dose: 50.0 mg/kg/injection, schedule: Q01DX009 (ip), vehicle: saline
[9] = dose: 50.0 mg/kg/injection, schedule: Q01DX001 (ip), vehicle: saline
[10] = dose: 100.0 mg/kg/injection, schedule: Q01DX001 (ip), vehicle: saline
[11] = dose: 200.0 mg/kg/injection, schedule: Q01DX001 (ip), vehicle: saline
[12] = dose: 400.0 mg/kg/injection, schedule: Q01DX001 (ip), vehicle: saline

With `CC(C)(C)c1nc2ccc([N+](=O)[O-])cc2[nH]1` the T/C (dose: 38.0 mg/kg/injection, schedule: Q01DX009 (ip), vehicle: other) was 104 % of control, the T/C (dose: 75.0 mg/kg/injection, schedule: Q01DX001 (ip), vehicle: other) was 92 % of control and the T/C (dose: 75.0 mg/kg/injection, schedule: Q04DX003 (ip), vehicle: other) was 92 % of control. The T/C (dose: 150.0 mg/kg/injection, schedule: Q01DX001 (ip), vehicle: other) was 91 % of control, the T/C (dose: 150.0 mg/kg/injection, schedule: Q04DX003 (ip), vehicle: other) was 92 % of control and the T/C (dose: 300.0 mg/kg/injection, schedule: Q01DX001 (ip), vehicle: other) was 97 % of control.
In the case of `C=C1C(=O)O[C@@H]2C[C@@H](C)[C@@H]3CC(=O)OC[C@@]3(C)C[C@H]12`, the T/C [1] is reported as 95 % of control and the T/C [2] is reported as 97 % of control.
In the case of `CO/C(=C(/C)C(=O)O)c1c(C)cc(C)c(Br)c1C`, the T/C (dose: 75.0 mg/kg/injection, schedule: Q01DX009 (ip), vehicle: Klucel (hydroxypropylcellulose) (HPC)) is reported as 98 % of control, the T/C (dose: 150.0 mg/kg/injection, schedule: Q01DX009 (ip), vehicle: Klucel (hydroxypropylcellulose) (HPC)) is reported as 95 % of control and the T/C (dose: 300.0 mg/kg/injection, schedule: Q01DX009 (ip), vehicle: Klucel (hydroxypropylcellulose) (HPC)) is reported as 109 % of control.
`Cc1nccn1CC(=O)c1ccccc1` was tested, and the T/C [3] was 102 % of control, the T/C (dose: 25.0 mg/kg/injection, schedule: Q01DX009 (ip), vehicle: Klucel (hydroxypropylcellulose) (HPC)) was 91 % of control and the T/C (dose: 25.0 mg/kg/injection, schedule: Q04DX003 (ip), vehicle: Klucel (hydroxypropylcellulose) (HPC)) was 100 % of control. For the same compound, the T/C [4] was 113 % of control, the T/C (dose: 50.0 mg/kg/injection, schedule: Q01DX009 (ip), vehicle: Klucel (hydroxypropylcellulose) (HPC)) was 94 % of control and 108 % of control and the T/C (dose: 50.0 mg/kg/injection, schedule: Q04DX003 (ip), vehicle: Klucel (hydroxypropylcellulose) (HPC)) was 103 % of control. For the same compound, the T/C [5] was 95 % of control, the T/C [6] was 97 % of control and the T/C (dose: 100.0 mg/kg/injection, schedule: Q04DX002 (ip), vehicle: Klucel (hydroxypropylcellulose) (HPC)) was 96 % of control and 106 % of control. For the same compound, the T/C [7] was 94 % of control and the T/C (dose: 200.0 mg/kg/injection, schedule: Q04DX002 (ip), vehicle: Klucel (hydroxypropylcellulose) (HPC)) was 101 % of control.
In the case of `CCCCCCCCCCCC[n+]1cccc2ccccc21`, the T/C (dose: 0.13 mg/kg/injection, schedule: Q01DX Z (ip), vehicle: carboxymethylcellulose (CMC)) is reported as 112 % of control, the T/C (dose: 0.25 mg/kg/injection, schedule: Q01DX Z (ip), vehicle: carboxymethylcellulose (CMC)) is reported as 96 % of control and the T/C (dose: 0.25 mg/kg/injection, schedule: Q04DX003 (ip), vehicle: saline) is reported as 97 % of control. The T/C (dose: 0.5 mg/kg/injection, schedule: Q01DX001 (ip), vehicle: saline) was 93 % of control, the T/C (dose: 0.5 mg/kg/injection, schedule: Q01DX Z (ip), vehicle: carboxymethylcellulose (CMC)) was 98 % of control and the T/C (dose: 0.5 mg/kg/injection, schedule: Q04DX003 (ip), vehicle: saline) was 92 % of control. The T/C (dose: 0.7 mg/kg/injection, schedule: Q01DX009 (ip), vehicle: saline) was 92 % of control, the T/C (dose: 1.0 mg/kg/injection, schedule: Q01DX001 (ip), vehicle: saline) was 88 % of control and the T/C (dose: 1.0 mg/kg/injection, schedule: Q01DX015 (ip), vehicle: carboxymethylcellulose (CMC)) was 108 % of control. The T/C (dose: 1.0 mg/kg/injection, schedule: Q01DX Z (ip), vehicle: carboxymethylcellulose (CMC)) was 98 % of control, the T/C (dose: 1.0 mg/kg/injection, schedule: Q04DX003 (ip), vehicle: saline) was 108 % of control and the T/C (dose: 1.4 mg/kg/injection, schedule: Q04DX003 (ip), vehicle: saline) was 94 % of control. The T/C (dose: 2.0 mg/kg/injection, schedule: Q01DX015 (ip), vehicle: carboxymethylcellulose (CMC)) was 106 % of control.
For `O=[N+]([O-])C12CC3CC(CC(C3)C1)C2`, the T/C (dose: 100.0 mg/kg/injection, schedule: Q01DX001 (sc), vehicle: olive oil, sesame oil, peanut oil) was 114 % of control, the T/C (dose: 200.0 mg/kg/injection, schedule: Q01DX001 (sc), vehicle: olive oil, sesame oil, peanut oil) was 108 % of control and the T/C (dose: 400.0 mg/kg/injection, schedule: Q01DX001 (sc), vehicle: olive oil, sesame oil, peanut oil) was 93 % of control.
For `[CH3][Ge]([CH3])([CH3])[CH2]CCl`, the T/C (dose: 100.0 mg/kg/injection, schedule: Q04DX002 (ip), vehicle: saline with Tween-80) was 98 % of control, the T/C (dose: 200.0 mg/kg/injection, schedule: Q04DX002 (ip), vehicle: saline with Tween-80) was 91 % of control and the T/C (dose: 400.0 mg/kg/injection, schedule: Q04DX002 (ip), vehicle: saline with Tween-80) was 98 % of control.
`C1CNC(CN2CCCC2)C1` (stereo not drawn) was tested, and the T/C (dose: 75.0 mg/kg/injection, schedule: Q01DX001 (ip), vehicle: saline) was 93 % of control, the T/C (dose: 150.0 mg/kg/injection, schedule: Q01DX001 (ip), vehicle: saline) was 101 % of control and the T/C (dose: 300.0 mg/kg/injection, schedule: Q01DX001 (ip), vehicle: saline) was 103 % of control.
`NCCCC(N)C(=O)NCCCCCCCCCCNC(=O)C(N)CCCN` (stereo not drawn) was tested, and the T/C (dose: 10.0 mg/kg/injection, schedule: Q01DX Z (ip), vehicle: saline) was 93 % of control and the T/C (dose: 30.0 mg/kg/injection, schedule: Q01DX Z (ip), vehicle: saline) was 101 % of control.
With `CN(N=O)C(=O)NCC1OC(OC2(CO)OC(CNC(=O)N(C)N=O)C(O)C2O)C(O)C(O)C1O` (stereo not drawn) the T/C (dose: 50.0 mg/kg/injection, schedule: Q01DX009 (ip), vehicle: saline with Tween-80) was 107 % of control, the T/C [8] was 91 % of control and the T/C (dose: 100.0 mg/kg/injection, schedule: Q01DX009 (ip), vehicle: saline with Tween-80) was 121 % of control. For the same compound, the T/C (dose: 100.0 mg/kg/injection, schedule: Q01DX009 (ip), vehicle: saline) was 109 % of control and the T/C (dose: 400.0 mg/kg/injection, schedule: Q01DX009 (ip), vehicle: saline with Tween-80) was 154 % of control.
With `O=S(=O)(F)c1ccc(Cl)cc1` the T/C [1] was 101 % of control and the T/C [2] was 89 % of control.
In the case of `O=C1OC(=O)c2c1ccc(Br)c2Br`, the T/C [6] is reported as 102 % of control, the T/C [7] is reported as 101 % of control and the T/C (dose: 200.0 mg/kg/injection, schedule: Q01DX009 (ip), vehicle: Klucel (hydroxypropylcellulose) (HPC)) is reported as 96 % of control. For the same compound, the T/C (dose: 200.0 mg/kg/injection, schedule: Q04DX003 (ip), vehicle: Klucel (hydroxypropylcellulose) (HPC)) was 98 % of control, the T/C (dose: 400.0 mg/kg/injection, schedule: Q01DX009 (ip), vehicle: Klucel (hydroxypropylcellulose) (HPC)) was 89 % of control and the T/C (dose: 400.0 mg/kg/injection, schedule: Q04DX003 (ip), vehicle: Klucel (hydroxypropylcellulose) (HPC)) was 93 % of control.
For `CCOC(=O)C1CN(C(C)C)C(=O)C1=O` (stereo not drawn), the T/C [9] was 100 % of control, the T/C [10] was 102 % of control and the T/C [11] was 96 % of control. For the same compound, the T/C [12] was 114 % of control.
In the case of `CCCCOC(=N)N(CCCC)CC(C)(C)[N+](=O)[O-]`, the T/C (dose: 44.0 mg/kg/injection, schedule: Q01DX Z (ip), vehicle: methylcellulose (MC)) is reported as 98 % of control and the T/C (dose: 100.0 mg/kg/injection, schedule: Q01DX Z (ip), vehicle: methylcellulose (MC)) is reported as 98 % of control.
For `Cn1cnc2ncnn2c1=S`, the T/C [8] was 114 % of control, the T/C (dose: 100.0 mg/kg/injection, schedule: Q04DX003 (ip), vehicle: saline) was 103 % of control and the T/C (dose: 200.0 mg/kg/injection, schedule: Q04DX003 (ip), vehicle: saline) was 105 % of control.
For `CCCn1c(N)cc(=O)[nH]c1=S`, the T/C [9] was 100 % of control, the T/C [10] was 96 % of control and the T/C [11] was 100 % of control. The T/C [12] was 100 % of control.
`CCCCC(CC)CP(=O)(CC(CC)CCCC)CC(CC)CCCC` (stereo not drawn) was tested, and the T/C (dose: 55.0 mg/kg/injection, schedule: Q01DX Z (ip), vehicle: methylcellulose (MC)) was 104 % of control, the T/C (dose: 83.0 mg/kg/injection, schedule: Q01DX Z (ip), vehicle: methylcellulose (MC)) was 100 % of control and the T/C (dose: 125.0 mg/kg/injection, schedule: Q01DX Z (ip), vehicle: methylcellulose (MC)) was 108 % of control.
In the case of `C=CCNC(=O)NCCSC(=O)SCCCC`, the T/C [5] is reported as 103 % of control, the T/C (dose: 200.0 mg/kg/injection, schedule: Q01DX001 (ip), vehicle: Klucel (hydroxypropylcellulose) (HPC)) is reported as 100 % of control and the T/C (dose: 400.0 mg/kg/injection, schedule: Q01DX001 (ip), vehicle: Klucel (hydroxypropylcellulose) (HPC)) is reported as 100 % of control.
For `CC1(C)C2CCC1(C)C(N=C(N)CSS(=O)(=O)O)C2` (stereo not drawn), the T/C (dose: 12.5 mg/kg/injection, schedule: Q04DX002 (ip), vehicle: Klucel (hydroxypropylcellulose) (HPC)) was 112 % of control, the T/C [3] was 101 % of control and the T/C (dose: 25.0 mg/kg/injection, schedule: Q04DX002 (ip), vehicle: Klucel (hydroxypropylcellulose) (HPC)) was 98 % of control. For the same compound, the T/C [4] was 98 % of control and the T/C [5] was 87 % of control.
